In PMC6753678, “Fueling Open Innovation for Malaria Transmission-Blocking Drugs: Hundreds of Molecules Targeting Early Parasite Mosquito Stages” (Frontiers in Microbiology, 2019):
Where two headings read alike, the source gives them in different places.

Assays:
[1] = system: 3D7-strain P. falciparum asexual parasites; experiment: P. falciparum asexual growth inhibition assay (Pf GIA); assay type: cell-based, Plasmodium falciparum; conditions: dose response confirmation; read-out: Pf asexual growth inhibition assays IC50
Summary of the method: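 Steps: seed parasites (0.25% parasitemia, 2% hematocrit) onto compound dilutions; incubate 72 h at 37°C, 5% O2/5% CO2; freeze at −70°C and thaw; add LDH reaction mix, read A650 after 10 min. Percent growth inhibition derived from chloroquine and DMSO controls, averaged over three biological replicates.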

[2] = system: HepG2 cells; experiment: HepG2 cytotoxicity assay; conditions: for Pb ODA (this manuscript) HepG2 cytoxicity: HepG2 cytotoxicity listed with the Pb ODA data set (this manuscript); for IC50: read-out: HepG2 cytotoxicity assay IC50, dose response confirmation
Summary of the method: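 HepG2 cells, 2,500 per well in MEM with 10% FBS and 1% NEAA, exposed to compounds for 48 h at 37°C, 5% CO2. Viability read by fluorescence; percent inhibition relative to 50 μM doxorubicin and DMSO controls.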

[3] = system: P. berghei ookinete development; conditions: for % inhibition, Replicate A / % inhibition, Replicate B: primary screen at 1 μM
[4] = read-out: Pb Ookinete development assay IC50, dose response confirmation
[5] = unified HepG2 value across the three screens
[6] = read-out: Pb ODA IC50, this manuscript
[7] = HepG2 values of the three screens unified
[8] = read-out: Pb ODA (this manuscript) IC50, P. berghei ookinete development assay, this manuscript

## COc1ccc2nc3cc(Cl)ccc3c(NCCN(C)C)c2c1 [TCMDC-139093]
[1]
  IC50: 48 nM
[2]
  Pb ODA (this manuscript) HepG2 cytoxicity: 15.85 µM
  IC50: 15800 nM
[3]
  Is compound selective in assay? Pb ODA active?: 0 (key: 1: YES; 0: NO)
  % inhibition, Replicate A: 73.14%
  % inhibition, Replicate B: 67.89%
[3]; [4]
  IC50: 2200 nM

## O=C(c1cccs1)N1CCN(c2ccc([N+](=O)[O-])c(NC3CC3)c2)CC1 [TCMDC-123877]
[1]
  IC50: 2660 nM
[2]
  IC50: 100000 nM
[2]; [5]
  Unified cytotox: 100.00 µM
[3]; 1: YES, 0: NO
  Is compound selective in assay? Pb ODA active?: 1 (1: YES)
[3]
  % inhibition, Replicate A: 53.49%
  % inhibition, Replicate B: 54.36%
[3]; [6]
  IC50: 1700 nM
[3]; [4]
  IC50: 1700 nM

## Cc1noc(C)c1-c1cccc(CNCc2ccc(-c3ccc(-c4nc5cccc(C)c5[nH]4)cc3)cc2)c1.O=C(O)C(F)(F)F [TCMDC-133061]
[1]
  IC50: 120 nM
[2]
  IC50: 7940 nM
[2]; [5]
  Unified cytotox: 7.94 µM
[3]; 1: YES, 0: NO
  Is compound selective in assay? Pb ODA active?: 0 (0: NO)
[3]
  % inhibition, Replicate A: 50.05%
  % inhibition, Replicate B: 37.24%
[3]; [6]
  IC50: 2660 nM
[3]; [4]
  IC50: 2660 nM

## CCc1cc2c3c(N)nc(N)nc3ccc2n1C(C)CC (stereo not drawn) [TCMDC-137308]
[1]
  IC50: < 0.2 nM
[2]
  HepG2 cytoxicity (Pb ODA, this manuscript): 0.0017 µM
  IC50: 1.7 nM
[2]; [7]
  Unified cytotox: 0.0017 µM
[3]; 1: YES, 0: NO
  Is compound selective in assay? Pb ODA active?: 0 (0: NO)
[3]
  % inhibition, Replicate A: 67.31%
  % inhibition, Replicate B: 61.54%
[3]; [6]
  IC50: 690 nM
[3]; [4]
  IC50: 694 nM

## Cc1ccccc1Cn1ccc2c3c(N)nc(N)nc3ccc21 [TCMDC-137812]
[1]
  IC50: < 0.3 nM
[2]
  HepG2 cytoxicity (Pb ODA, this manuscript): 0.00828 µM
  IC50: 8.28 nM
[2]; [7]
  Unified cytotox: 0.00828 µM
[3]; 1: YES, 0: NO
  Is compound selective in assay? Pb ODA active?: 0 (0: NO)
[3]
  % inhibition, Replicate A: 41.40%
  % inhibition, Replicate B: 62.61%
[3]; [6]
  IC50: 430 nM
[3]; [4]
  IC50: 429 nM

## Cc1cc(C)cc(-n2c(C)cc(/C=C3\SC(=Nc4ccc(Cl)cc4)NC3=O)c2C)c1 [TCMDC-124103]
[1]
  IC50: 32 nM
[2]
  IC50: 100000 nM
[2]; [5]
  Unified cytotox: 100.00 µM
[3]; 1: YES, 0: NO
  Is compound selective in assay? Pb ODA active?: 1 (1: YES)
[3]
  % inhibition, Replicate A: 110.51%
  % inhibition, Replicate B: 94.72%
[3]; [6]
  IC50: 560 nM
[3]; [4]
  IC50: 561 nM

## CC1CN(Cc2ccc(-c3ccc(-c4nc5cc(F)ccc5[nH]4)cc3)cc2)CC(C)O1.O=C(O)C(F)(F)F (stereo not drawn) [TCMDC-133831]
[1]
  IC50: 1220 nM
[2]
  Pb ODA (this manuscript) HepG2 cytoxicity: 24.55 µM
  IC50: 24600 nM
[3]
  Is compound selective in assay? Pb ODA active?: 1 (key: 1: YES; 0: NO)
  % inhibition, Replicate A: 81.24%
  % inhibition, Replicate B: 52.13%
[3]; [4]
  IC50: 1180 nM

## Cc1nc2nc(N)nc(N)c2c(C)c1Cc1ccc(N)cc1.Cl [TCMDC-137633]
[1]
  IC50: 287 nM
[2]
  Pb ODA (this manuscript) HepG2 cytoxicity: 0.08 µM
  IC50: 80 nM
[3]
  Is compound selective in assay? Pb ODA active?: 0 (key: 1: YES; 0: NO)
  % inhibition, Replicate A: 2.48%
  % inhibition, Replicate B: 52.30%
[3]; [8]
  IC50: 6210 nM
[3]; [4]
  IC50: 6210 nM

## CCCCOc1cc2ncc(C(=O)OCC)c(O)c2cc1OCCCC [TCMDC-137523]
[1]
  IC50: 63 nM
[2]
  IC50: 100000 nM
[2]; [5]
  Unified cytotox: 100.00 µM
[3]; 1: YES, 0: NO
  Is compound selective in assay? Pb ODA active?: 1 (1: YES)
[3]
  % inhibition, Replicate A: 74.60%
  % inhibition, Replicate B: 95.02%
[3]; [6]
  IC50: 2190 nM
[3]; [4]
  IC50: 2190 nM

## Cc1ccc(S(=O)(=O)N2CCCN(C(=O)c3cc(-c4ccccc4)n[nH]3)CC2)cc1 [TCMDC-125243]
[1]
  IC50: 273 nM
[2]
  Pb ODA (this manuscript) HepG2 cytoxicity: 100.00 µM
  IC50: 100000 nM
[3]
  Is compound selective in assay? Pb ODA active?: 1 (key: 1: YES; 0: NO)
  % inhibition, Replicate A: 53.41%
  % inhibition, Replicate B: 33.70%
[3]; [8]
  IC50: 5420 nM
[3]; [4]
  IC50: 5420 nM

## Cc1cccc2nc(-c3ccc(-c4ccc(CN5CC(C)OC(C)C5)cc4)cc3)[nH]c12.O=C(O)C(F)(F)F (stereo not drawn) [TCMDC-133823]
[1]
  IC50: 168 nM
[2]
  Pb ODA (this manuscript) HepG2 cytoxicity: 15.14 µM
  IC50: 15100 nM
[3]
  Is compound selective in assay? Pb ODA active?: 1 (key: 1: YES; 0: NO)
  % inhibition, Replicate A: 122.68%
  % inhibition, Replicate B: 88.91%
[3]; [8]
  IC50: 430 nM
[3]; [4]
  IC50: 434 nM

## Nc1nc(N)c2c(ccc3c2ncn3Cc2ccccc2)n1 [TCMDC-137749]
[1]
  IC50: 244 nM
[2]
  IC50: 1150 nM
[2]; [5]
  Unified cytotox: 1.15 µM
[3]; 1: YES, 0: NO
  Is compound selective in assay? Pb ODA active?: 0 (0: NO)
[3]
  % inhibition, Replicate A: 48.44%
  % inhibition, Replicate B: 74.97%
[3]; [6]
  IC50: 4450 nM
[3]; [4]
  IC50: 4450 nM
